Laboratory results reported in patent publication US20060235076A1, “Medicinal composition for treating infection with drug-resistant staphylococcus aureus” (priority 2003, published 2006).
In brackets after ≈: the same amount, converted by molar mass. Read-outs that look alike come from different tables or passages of the source.

Tested on: MRSA and MSSA
Experiment: Antibacterial activity of gallic acid, various gallates and multivalent phenol derivatives alone (agar plate dilution method, MIC)
Assay type: cell-based, Staphylococcus aureus
Conditions: Staphylococcus aureus
Procedure: According to the agar plate dilution method defined by Japan Society of Chemotherapy, MIC (Minimum inhibitory concentration) was determined. CAMHA was prepared by adding 50 mg/l of Ca-ion, 25 mg/l of Mg-ion, and 2% of NaCl to Mueller-Hinton II Agar (MHA), and it was used as a medium for use in the measurement of sensitivity. The bacterial liquid was incubated at 37° C. overnight and diluted to 10^6 CFU/ml with saline.
MIC for gallic acid, various gallates and multivalent phenol derivatives alone with MRSA and MSSA were determined as described in experiment 2.

[1] = ATCC 6538 / MRSA / MSSA, ATCC6538, compound alone, read-out: MIC
[2] = COL, compound alone, read-out: MIC
[3] = MRSA #1, compound alone, read-out: MIC
[4] = MRSA #2, compound alone, read-out: MIC
[5] = MRSA #3, compound alone, read-out: MIC
[6] = MRSA #4, compound alone, read-out: MIC
[7] = MRSA #5, compound alone, read-out: MIC
[8] = MRSA #6, compound alone, read-out: MIC
[9] = MRSA #7, compound alone, read-out: MIC
[10] = MRSA #8, compound alone, read-out: MIC
[11] = MRSA #9, compound alone, read-out: MIC
[12] = MRSA #10, compound alone, read-out: MIC
[13] = MRSA #12, compound alone, read-out: MIC
[14] = MRSA #16, compound alone, read-out: MIC
[15] = MRSA #17, compound alone, read-out: MIC
[16] = MRSA #18, compound alone, read-out: MIC
[17] = MRSA #20, compound alone, read-out: MIC
[18] = MRSA #21, compound alone, read-out: MIC
[19] = MRSA #22, compound alone, read-out: MIC
[20] = MRSA #24, compound alone, read-out: MIC
[21] = MSSA #1003, compound alone, read-out: MIC
[22] = MSSA #1010, compound alone, read-out: MIC
[23] = MSSA #1020, compound alone, read-out: MIC
[24] = MSSA #1023, compound alone, read-out: MIC
[25] = MSSA #1029, compound alone, read-out: MIC
[26] = MSSA #1032, compound alone, read-out: MIC
[27] = over all strains of Table 3-2, compound alone, read-out: MIC50

Row | SMILES | MIC [2] [µg/mL] | MIC [3] [µg/mL] | MIC [4] [µg/mL] | MIC [5] [µg/mL] | MIC [6] [µg/mL] | MIC [7] [µg/mL] | MIC [8] [µg/mL] | MIC [9] [µg/mL] | MIC [10] [µg/mL] | MIC [11] [µg/mL] | MIC [12] [µg/mL] | MIC [13] [µg/mL] | MIC [14] [µg/mL] | MIC [15] [µg/mL] | MIC [16] [µg/mL] | MIC [17] [µg/mL] | MIC [18] [µg/mL] | MIC [19] [µg/mL] | MIC [20] [µg/mL] | MIC [21] [µg/mL] | also measured
1 | CCCCCCCCCCCCCCCCOC(=O)c1cc(O)c(O)c(O)c1 [Cetyl gallate] | 250 (≈ 634 µM) | > 250 | 250 (≈ 634 µM) | > 250 | > 250 | > 250 | 125 (≈ 317 µM) | > 250 | > 250 | > 250 | 125 (≈ 317 µM) | > 250 | > 250 | > 250 | > 250 | > 250 | > 250 | > 250 | > 250 | > 250 | MIC [1]: > 250 µg/mL; MIC [22]: > 250 µg/mL; MIC [23]: > 250 µg/mL; MIC [24]: > 250 µg/mL; MIC [25]: 250 µg/mL (≈ 634 µM); MIC [26]: 250 µg/mL (≈ 634 µM); MIC50 [27]: > 250 µg/mL
2 | CCCC(=O)c1cc(O)c(O)cc1O [2′,4′,5′-trihydroxybutyrophenone] | 125 (≈ 637 µM) | 62.5 (≈ 319 µM) | 125 (≈ 637 µM) | 62.5 (≈ 319 µM) | 125 (≈ 637 µM) | 62.5 (≈ 319 µM) | 62.5 (≈ 319 µM) | 62.5 (≈ 319 µM) | 125 (≈ 637 µM) | 62.5 (≈ 319 µM) | 62.5 (≈ 319 µM) | 125 (≈ 637 µM) | 62.5 (≈ 319 µM) | 125 (≈ 637 µM) | 125 (≈ 637 µM) | 125 (≈ 637 µM) | 125 (≈ 637 µM) | 125 (≈ 637 µM) | 125 (≈ 637 µM) | 125 (≈ 637 µM) | MIC50: 125 µg/mL (≈ 637 µM); MIC (ATCC 6538 / MRSA / MSSA): 125 µg/mL (≈ 637 µM); MIC [22]: 125 µg/mL (≈ 637 µM); MIC [23]: 125 µg/mL (≈ 637 µM); MIC [24]: 62.5 µg/mL (≈ 319 µM); MIC [25]: 62.5 µg/mL (≈ 319 µM); MIC [26]: 62.5 µg/mL (≈ 319 µM)
3 | CC(C)CCOC(=O)c1ccc(O)cc1 [Isoamyl 4-hydroxybenzoate] | 62.5 (≈ 300 µM) | 62.5 (≈ 300 µM) | 62.5 (≈ 300 µM) | 62.5 (≈ 300 µM) | 62.5 (≈ 300 µM) | 62.5 (≈ 300 µM) | 62.5 (≈ 300 µM) | 62.5 (≈ 300 µM) | 62.5 (≈ 300 µM) | 62.5 (≈ 300 µM) | 31.3 (≈ 150 µM) | 62.5 (≈ 300 µM) | 62.5 (≈ 300 µM) | 62.5 (≈ 300 µM) | 62.5 (≈ 300 µM) | 62.5 (≈ 300 µM) | 62.5 (≈ 300 µM) | 62.5 (≈ 300 µM) | 62.5 (≈ 300 µM) | 62.5 (≈ 300 µM) | MIC50: 62.5 µg/mL (≈ 300 µM); MIC (ATCC 6538 / MRSA / MSSA): 62.5 µg/mL (≈ 300 µM); MIC [22]: 62.5 µg/mL (≈ 300 µM); MIC [23]: 62.5 µg/mL (≈ 300 µM); MIC [24]: 62.5 µg/mL (≈ 300 µM); MIC [25]: 62.5 µg/mL (≈ 300 µM); MIC [26]: 62.5 µg/mL (≈ 300 µM)
4 | CC(=O)c1ccc(O)c(O)c1O [2′,3′,4′-trihydroxyacetophenone] | 62.5 (≈ 372 µM) | 62.5 (≈ 372 µM) | 62.5 (≈ 372 µM) | 62.5 (≈ 372 µM) | 62.5 (≈ 372 µM) | 62.5 (≈ 372 µM) | 31.3 (≈ 186 µM) | 62.5 (≈ 372 µM) | 62.5 (≈ 372 µM) | 62.5 (≈ 372 µM) | 31.3 (≈ 186 µM) | 62.5 (≈ 372 µM) | 62.5 (≈ 372 µM) | 62.5 (≈ 372 µM) | 62.5 (≈ 372 µM) | 62.5 (≈ 372 µM) | 62.5 (≈ 372 µM) | 62.5 (≈ 372 µM) | 62.5 (≈ 372 µM) | 62.5 (≈ 372 µM) | MIC [1]: 62.5 µg/mL (≈ 372 µM); MIC [22]: 62.5 µg/mL (≈ 372 µM); MIC [23]: 62.5 µg/mL (≈ 372 µM); MIC [24]: 31.3 µg/mL (≈ 186 µM); MIC [25]: 31.3 µg/mL (≈ 186 µM); MIC [26]: 62.5 µg/mL (≈ 372 µM); MIC50 [27]: 62.5 µg/mL (≈ 372 µM)
